Experimental data reported in US7829524B2, “Antimicrobial peptides” (Novozymes Adenium Biotech A/S, priority 2003, dated 2010).
Read-outs that look alike come from different tables or passages of the source. Where no end group is shown, it is not given here.

How the values were obtained:
E. coli TOP10 = type: cell-based
Description: A range of synthetic antimicrobial polypeptides were expressed in E. coli TOP10 (Invitrogen) using arabinose as inducer, as disclosed in Example 1 of International patent application WO 00/73433 (with minor modifications). […] Briefly, fresh overnight cultures grown in RM medium containing 0.2% glucose and ampicillin (100 μg/ml) were diluted 300-fold into 150 microliter of RM containing 0.2% glycerol and ampicillin (100 μg/ml) and different concentrations of arabinose (0, 0.01% or 0.1%) in a microtiter plate and incubated at 37 degrees Celsius with vigorous shaking. The growth curve was monitored by measuring OD450 using a Bioscreen C Microbiology reader (Thermo Electron Corporation) at intervals of 30 minutes for 14 hours (see Invitrogen protocol of the pBAD/gill A, B and C vectors catalogue nos. V450-01 for buffer and media composition). The percentage of growth inhibition was calculated as the end point OD measurement of each sample divided by the end point OD measurement obtained from cells containing the control vector and multiplied by 100. The formula is the following: [formula] where “blank OD” corresponds to the OD of an empty well.

[1] = test system: Micrococcus luteus (ATCC9341); type: cell-based; conditions: ATCC9341
Description: (§1) According to the NCCLS guidelines for susceptibility test of novel antimicrobial compounds, we found a broad spectrum of activity of Cat1 (Methods for Dilution Antimicrobial Susceptibility Tests for Bacteria That Grow Aerobically; Approved Standard-Fifth Edition. NCCLS document M7-A5 (ISBN1-56238-394-9)).
(§2) In another campaign, the specific MICs of Cat1 were determined against a variety of microbial strains relevant for wound infections. As recommended in the above-mentioned NCCLS protocol, the strains were grown in cationic adjusted Muller-Hinton Broth. The highest concentration tested was 32 μg/ml.
(§3) The antimicrobial activity of the polypeptides of the invention was analyzed using the Microdilution Broth Assay (see Example 1) with Mueller Hinton Broth (MHB) media. Four different bacterial strains were tested in this setup; Micrococcus luteus (ATCC 9341), Pseudomonas aeruginosa (ATCC 27853), Escherichia coli (ATCC 10536) and Klebsiella pneumoniae (DSM681). The amino acid sequence of the polypeptides and the Minimal Inhibitory concentrations (MIC, microgram/ml) obtained is presented in Table 7 below.

[2] = test system: Eschericia coil (ATCC10536); type: cell-based, Escherichia coli; conditions: ATCC10536
Description: as §1, §3

Escherichia coli Top10 = test: Radial Diffusion Assay using minimal conditions (MEC); type: cell-based; conditions: Table 8
Description: (§4) A modified version of a previously published protocol has been applied in the detection of antimicrobial activity (Lehrer et al., (1991) Ultra sensitive assays for endogenous antimicrobial polypeptides J Immunol Methods 137: 167-173). Target bacteria (10^6 colony forming units (CFU)) were added to 10 ml of underlay agarose (1% low electro-endosmosis agarose, 0.03% Trypticase soy broth, 10 mM sodium phosphate, pH 7.4, 37 degrees Celsius). Suspension was solidified on an INTEGRID Petri Dish (Becton Dickinson Labware). A 3 mm Gel Puncher was used to make holes in the underlay agarose (Amersham Pharmacia Biotech, Sweden). Samples were added to the holes and incubated at 37 degrees Celsius, 3 hours. An overlay was poured on top and the plate was incubated overnight (LB media, 7.5% Agar). Antimicrobial activity was seen as bacterial clearing zones around the wells. Living cells was counterstained by adding 10 ml, 0.2 mM MTT (3-(4,5-Dimethylthiazol-2-yl)-2,5-diphenyltetrazolium bromide Thiazolyl blue).
(§5) The antimicrobial activity of the polypeptides of the invention was also analyzed in a Radial Diffusion Assay (see Example 1) using minimal conditions. Two bacterial strains were tested in this setup; Staphylococcus camosus and Escherichia coli Top10. The amino acid sequence of the polypeptides and the Minimal Effective Concentration (MEC, microgram/ml) obtained is presented in table 8 below.

Staphylococcus camosus = test: as above; type: cell-based; conditions: Table 8
Description: as §4, §5

[3] = test system: Pseudomonas aeroginosa (ATCC27853); type: cell-based, Pseudomonas aeruginosa; conditions: ATCC27853
Description: as §1, §2
Minimal inhibitory concentrations of Cat1 were also determined using cation-adjusted Mueller hinton broth (MHB) in the microbroth dilution assay, wherein MHB was used with different modifications as depicted in Table 2 below. The selected test organism was Pseudomonas aeroginosa (ATCC 27853). […]

[4] = test system: Klebsiella pneumoniae (DSM681); type: cell-based
Description: as §1, §3

[5] = Table 4, 0.01% arabinose, end point OD450, 14 hours
[6] = Table 4, 0.1% arabinose, end point OD450, 14 hours
[7] = Table 5, 0.1% arabinose, end point OD450, 14 hours

Row | Sequence | Growth inhibition using 0.1% arabinose (%) (E. coli TOP10; TOP10, 14 h) | MIC [1] | MIC [2] | MEC (Escherichia coli Top10) | MEC (Staphylococcus camosus) | MIC [3] | Growth inhibition using 0.1% arabinose (%) (E. coli TOP10; [7]) | other results
1 | GLLKRLGRKIGKKLKKIAR [SEQ ID NO: 66, GLLKRLGRKIGKKLKKIAR] | 100% | 64 µg/mL | 8 µg/mL | 13.5 µg/mL | 2 µg/mL | 64 µg/mL |  | Growth inhibition using 0.01% arabinose (%) (E. coli TOP10; TOP10, 14 h): 92%
2 | GLLRRFRKKIGKKLKKIAR [SEQ ID NO: 62, GLLRRFRKKIGKKLKKIAR] | 98% | 64 µg/mL | 16 µg/mL | 28.0 µg/mL | 1.1 µg/mL | 64 µg/mL |  | Growth inhibition using 0.01% arabinose (%) (E. coli TOP10; TOP10, 14 h): 94%; MIC [4]: 32 to 64 µg/mL
3 | GLLRRFWKKIGKKLKKFGQKIKPLPKLVP [SEQ ID NO: 41] | 96% | 32 µg/mL | 32 µg/mL | 16.6 µg/mL | 3.8 µg/mL | 16 µg/mL |  | MIC [4]: 32 µg/mL
4 | GLLRRLRKKIGKKLKKIAR [SEQ ID NO: 59, GLLRRLRKKIGKKLKKIAR] | 100% | 32 µg/mL | 16 µg/mL | 18.3 µg/mL | 1.8 µg/mL | 8 µg/mL |  | Growth inhibition using 0.01% arabinose (%) (E. coli TOP10; TOP10, 14 h): 93%; MIC [4]: 32 µg/mL
5 | GLLRRLWRKIGRKLKKYGQKIKALRKLVP [SEQ ID NO: 13] | 100% | 32 µg/mL | 64 µg/mL | 27.0 µg/mL | 4.4 µg/mL | 32 µg/mL |  | Growth inhibition using 0.01% arabinose (%) (E. coli TOP10; TOP10, 14 h): 96%; MIC [4]: 32 µg/mL
6 | GRFRRFRKKIGKKLKKIGLVIKHIRILVP (Synthetic antimicrobial peptide) [SEQ ID NO: 14] |  |  |  |  |  |  |  | Growth inhibition using 0.01% arabinose (%) (E. coli TOP10; [5]): 94%; Growth inhibition using 0.1% arabinose (%) (E. coli TOP10; [6]): 100%
7 | GRFRRLGRKIGEKLKKFGQVIKAIRILVP (Synthetic antimicrobial peptide) [SEQ ID NO: 42] |  |  |  |  |  |  | 95% | 
8 | GRIKRVGEKIGKKLKKIGQVIKHLRILVP (Synthetic antimicrobial peptide) [SEQ ID NO: 38] |  |  |  | 8.5 µg/mL | 8 µg/mL |  | 96% | 
9 | GRIRRLRRKIRKKLKKYGQKIKAIRKIVP (GRLRRLRRKIRKKLKKYGQKIKAIRKLVP; Synthetic antimicrobial peptide) [SEQ ID NO: 27] |  |  |  |  |  |  | 96% | 
10 | GRLRRFGKKIGKKIKKFGQLIKALRILVP (GRLRRFGKKIGKKLKKFGQLIKALRILVP; Synthetic antimicrobial peptide) [SEQ ID NO: 40] |  |  |  |  |  |  | 95% | 
11 | GRLRRFRKKIGKKLKKIGQMIKHIRILVP (Synthetic antimicrobial peptide) [SEQ ID NO: 30] |  |  |  |  |  |  | 95% | 
12 | GRLRRLGKIUGEKLKKFGQMIKHIRILVP (GRLRRLGKKIGEKLKKFGQMIKHIRILVP; Synthetic antimicrobial peptide) [SEQ ID NO: 53] |  |  |  |  |  |  | 84% | 
13 | GRLRRLRRKIGEKLKKFGQVIKALRILVP (Synthetic antimicrobial peptide) [SEQ ID NO: 12] |  |  |  |  |  |  |  | Growth inhibition using 0.01% arabinose (%) (E. coli TOP10; [5]): 94%; Growth inhibition using 0.1% arabinose (%) (E. coli TOP10; [6]): 99%
14 | GRLRRLWRKIGRKLKKYGQVIKHLRILVP (Synthetic antimicrobial peptide) [SEQ ID NO: 17] |  |  |  |  |  |  |  | Growth inhibition using 0.01% arabinose (%) (E. coli TOP10; [5]): 94%; Growth inhibition using 0.1% arabinose (%) (E. coli TOP10; [6]): 100%
